tested on: L02; assay: Cytotoxicity against human L02 cells measured after 48 hrs by MTT assay; format: cell-based; details: L02, 48 h

SMILES	IC50
C[C@H]1[C@H](OC(=O)CCC(=O)O)O[C@@H]2O[C@@]3(C)CC[C@H]4[C@H](C)CC[C@@H]1[C@@]24OO3 [ARTESUNATE]	72.2 µM
C[C@H]1[C@H](OC(=O)CCC(=O)OCCn2cnc(Br)c2)O[C@@H]2O[C@@]3(C)CC[C@H]4[C@H](C)CC[C@@H]1[C@@]24OO3	66.9 µM
C[C@H]1[C@H](OC(=O)CCC(=O)OCCCCn2cnc([N+](=O)[O-])c2)O[C@@H]2O[C@@]3(C)CC[C@H]4[C@H](C)CC[C@@H]1[C@@]24OO3	77.5 µM
C[C@@H]1CC[C@H]2[C@@H](C)C(=O)O[C@@H]3O[C@@]4(C)CC[C@@H]1[C@]32OO4 [ARTEMISININ]	> 100 µM
C[C@H]1[C@H](OC(=O)CCC(=O)OCCCn2cnc(C#N)c2C#N)O[C@@H]2O[C@@]3(C)CC[C@H]4[C@H](C)CC[C@@H]1[C@@]24OO3	66.2 µM
C[C@H]1[C@H](OC(=O)CCC(=O)OCCCCn2cnc(C#N)c2C#N)O[C@@H]2O[C@@]3(C)CC[C@H]4[C@H](C)CC[C@@H]1[C@@]24OO3	42.9 µM

tested on: not listed separately; assay: Toxicity in human MCF7 cells assessed as inhibition of cell proliferation at 5 uM measured after 48 hrs by MTT assay; format: cell-based; details: not given

SMILES	inhibition at 48 h, 5 µM
C[C@H]1[C@H](OC(=O)CCC(=O)OCCn2cnc(Br)c2)O[C@@H]2O[C@@]3(C)CC[C@H]4[C@H](C)CC[C@@H]1[C@@]24OO3	12.4%
C[C@H]1[C@H](OC(=O)CCC(=O)OCCCCn2cnc([N+](=O)[O-])c2)O[C@@H]2O[C@@]3(C)CC[C@H]4[C@H](C)CC[C@@H]1[C@@]24OO3	20.2%
C[C@H]1[C@H](OC(=O)CCC(=O)OCCCn2cnc(C#N)c2C#N)O[C@@H]2O[C@@]3(C)CC[C@H]4[C@H](C)CC[C@@H]1[C@@]24OO3	15%
C[C@H]1[C@H](OC(=O)CCC(=O)OCCCCn2cnc(C#N)c2C#N)O[C@@H]2O[C@@]3(C)CC[C@H]4[C@H](C)CC[C@@H]1[C@@]24OO3	11.2%

tested on: MDA-MB-231; assay: Antiproliferative activity against human MDA-MB-231 cells measured after 48 hrs by MTT assay; format: functional, cell-based; details: MDA-MB-231, 48 h

SMILES	IC50
C[C@H]1[C@H](OC(=O)CCC(=O)O)O[C@@H]2O[C@@]3(C)CC[C@H]4[C@H](C)CC[C@@H]1[C@@]24OO3 [ARTESUNATE]	75.7 µM
C[C@H]1[C@H](OC(=O)CCC(=O)OCCn2cnc(Br)c2)O[C@@H]2O[C@@]3(C)CC[C@H]4[C@H](C)CC[C@@H]1[C@@]24OO3	> 100 µM
C[C@H]1[C@H](OC(=O)CCC(=O)OCCCCn2cnc([N+](=O)[O-])c2)O[C@@H]2O[C@@]3(C)CC[C@H]4[C@H](C)CC[C@@H]1[C@@]24OO3	57 µM
C[C@@H]1CC[C@H]2[C@@H](C)C(=O)O[C@@H]3O[C@@]4(C)CC[C@@H]1[C@]32OO4 [ARTEMISININ]	> 100 µM
C[C@H]1[C@H](OC(=O)CCC(=O)OCCCn2cnc(C#N)c2C#N)O[C@@H]2O[C@@]3(C)CC[C@H]4[C@H](C)CC[C@@H]1[C@@]24OO3	93.2 µM
C[C@H]1[C@H](OC(=O)CCC(=O)OCCCCn2cnc(C#N)c2C#N)O[C@@H]2O[C@@]3(C)CC[C@H]4[C@H](C)CC[C@@H]1[C@@]24OO3	50.8 µM

tested on: MCF7; assay: Antiproliferative activity against human MCF7 cells measured after 48 hrs by MTT assay; format: functional, cell-based; details: MCF7, 48 h

SMILES	IC50
C[C@H]1[C@H](OC(=O)CCC(=O)O)O[C@@H]2O[C@@]3(C)CC[C@H]4[C@H](C)CC[C@@H]1[C@@]24OO3 [ARTESUNATE]	38.7 µM
C[C@H]1[C@H](OC(=O)CCC(=O)OCCn2cnc(Br)c2)O[C@@H]2O[C@@]3(C)CC[C@H]4[C@H](C)CC[C@@H]1[C@@]24OO3	13.1 µM
C[C@H]1[C@H](OC(=O)CCC(=O)OCCCCn2cnc([N+](=O)[O-])c2)O[C@@H]2O[C@@]3(C)CC[C@H]4[C@H](C)CC[C@@H]1[C@@]24OO3	15.4 µM
C[C@@H]1CC[C@H]2[C@@H](C)C(=O)O[C@@H]3O[C@@]4(C)CC[C@@H]1[C@]32OO4 [ARTEMISININ]	> 50 µM
C[C@H]1[C@H](OC(=O)CCC(=O)OCCCn2cnc(C#N)c2C#N)O[C@@H]2O[C@@]3(C)CC[C@H]4[C@H](C)CC[C@@H]1[C@@]24OO3	16.2 µM
C[C@H]1[C@H](OC(=O)CCC(=O)OCCCCn2cnc(C#N)c2C#N)O[C@@H]2O[C@@]3(C)CC[C@H]4[C@H](C)CC[C@@H]1[C@@]24OO3	15.2 µM

tested on: NCI/ADR-RES; assay: Potentiation of adriamycin-induced antiproliferative activity against human MCF7/ADR cells assessed as fold reduction in adriamycin IC50 at 5 uM measured after 48 hrs by MTT assay; format: functional; details: not given

SMILES	fold change (FC)
C[C@H]1[C@H](OC(=O)CCC(=O)OCCn2cnc(Br)c2)O[C@@H]2O[C@@]3(C)CC[C@H]4[C@H](C)CC[C@@H]1[C@@]24OO3	6.37
C[C@H]1[C@H](OC(=O)CCC(=O)OCCCCn2cnc([N+](=O)[O-])c2)O[C@@H]2O[C@@]3(C)CC[C@H]4[C@H](C)CC[C@@H]1[C@@]24OO3	26.06
C[C@H]1[C@H](OC(=O)CCC(=O)OCCCn2cnc(C#N)c2C#N)O[C@@H]2O[C@@]3(C)CC[C@H]4[C@H](C)CC[C@@H]1[C@@]24OO3	4.37
C[C@H]1[C@H](OC(=O)CCC(=O)OCCCCn2cnc(C#N)c2C#N)O[C@@H]2O[C@@]3(C)CC[C@H]4[C@H](C)CC[C@@H]1[C@@]24OO3	4.1

tested on: A549; assay: Antiproliferative activity against human A549 cells measured after 48 hrs by MTT assay; format: functional, cell-based; details: A549, 48 h

SMILES	IC50
C[C@H]1[C@H](OC(=O)CCC(=O)O)O[C@@H]2O[C@@]3(C)CC[C@H]4[C@H](C)CC[C@@H]1[C@@]24OO3 [ARTESUNATE]	50.7 µM
C[C@H]1[C@H](OC(=O)CCC(=O)OCCn2cnc(Br)c2)O[C@@H]2O[C@@]3(C)CC[C@H]4[C@H](C)CC[C@@H]1[C@@]24OO3	24.7 µM
C[C@H]1[C@H](OC(=O)CCC(=O)OCCCCn2cnc([N+](=O)[O-])c2)O[C@@H]2O[C@@]3(C)CC[C@H]4[C@H](C)CC[C@@H]1[C@@]24OO3	25.8 µM
C[C@@H]1CC[C@H]2[C@@H](C)C(=O)O[C@@H]3O[C@@]4(C)CC[C@@H]1[C@]32OO4 [ARTEMISININ]	> 50 µM
C[C@H]1[C@H](OC(=O)CCC(=O)OCCCn2cnc(C#N)c2C#N)O[C@@H]2O[C@@]3(C)CC[C@H]4[C@H](C)CC[C@@H]1[C@@]24OO3	26.7 µM
C[C@H]1[C@H](OC(=O)CCC(=O)OCCCCn2cnc(C#N)c2C#N)O[C@@H]2O[C@@]3(C)CC[C@H]4[C@H](C)CC[C@@H]1[C@@]24OO3	17.9 µM

tested on: HepG2; assay: Antiproliferative activity against human HepG2 cells measured after 48 hrs by MTT assay; format: functional, cell-based; details: HepG2, 48 h

SMILES	IC50
C[C@H]1[C@H](OC(=O)CCC(=O)O)O[C@@H]2O[C@@]3(C)CC[C@H]4[C@H](C)CC[C@@H]1[C@@]24OO3 [ARTESUNATE]	39.9 µM
C[C@H]1[C@H](OC(=O)CCC(=O)OCCn2cnc(Br)c2)O[C@@H]2O[C@@]3(C)CC[C@H]4[C@H](C)CC[C@@H]1[C@@]24OO3	31.9 µM
C[C@H]1[C@H](OC(=O)CCC(=O)OCCCCn2cnc([N+](=O)[O-])c2)O[C@@H]2O[C@@]3(C)CC[C@H]4[C@H](C)CC[C@@H]1[C@@]24OO3	30.2 µM
C[C@@H]1CC[C@H]2[C@@H](C)C(=O)O[C@@H]3O[C@@]4(C)CC[C@@H]1[C@]32OO4 [ARTEMISININ]	> 50 µM
C[C@H]1[C@H](OC(=O)CCC(=O)OCCCn2cnc(C#N)c2C#N)O[C@@H]2O[C@@]3(C)CC[C@H]4[C@H](C)CC[C@@H]1[C@@]24OO3	> 50 µM
C[C@H]1[C@H](OC(=O)CCC(=O)OCCCCn2cnc(C#N)c2C#N)O[C@@H]2O[C@@]3(C)CC[C@H]4[C@H](C)CC[C@@H]1[C@@]24OO3	32.3 µM

Source: ChEMBL document CHEMBL4316608, “Artemisinin-indole and artemisinin-imidazole hybrids: Synthesis, cytotoxic evaluation and reversal effects on multidrug resistance in MCF-7/ADR cells” (Bioorg Med Chem Lett, 2019)
